Experimental data taken from patent US11883509B2, “Pharmaceutical composition for inhalation administration for labeling pulmonary tumorous lesion, containing fluorescent contrast agent as active ingredient” (KOREA UNIVERSITY RESEARCH AND BUSINESS FOUNDATION, priority 2018, dated 2024).
“And” between values parts separate entries of the source, which are not always exact repeats. Identical values can stand only once.

Assays:
Format in all cases: in vivo
[1] = Distribution of ICG administered to normal mice via airway and fluorescence duration
Protocol: It was investigated, when Indocyanine green (ICG) is administered via the airway of a subject through respiration, whether the lungs are stained properly, organs other than the lungs are also affected, how long the staining lasts, etc. More specifically, 0.25 mg/mL ICG were administered to normal mice for 10 minutes through respiration using the SciReq nebulizer, as shown in FIG. 1a. The, the ICG (2.5 mg/kg)-administered mice were sacrificed 10 minutes, 1 hour, 3 hours, 6 hours and 24 hours later. After extracting the brain, lung, liver, kidney and spleen, fluorescence images were acquired and fluorescence signal intensity was measured using a fluorescence imaging system.

VX2 carcinoma [2] = assay: Identification of boundary of cancer tissue in lung tumor-induced rabbit model through airway administration of ICG; details: ICG 0.75 mg/mL inhaled 4 minutes
Protocol: (§1) In Example 1, it was confirmed that the ICG administered via the airway through respiration stained the lung tissue quickly and emitted strong fluorescence with little effect on other organs. Then, it was investigated whether the airway administration of ICG can be used to distinguish cancer tissue from normal tissue by staining only the normal tissue in a lung tumor animal model. Specifically, a lung tumor-induced rabbit model was prepared as shown in FIG. 2 by transplanting VX2 carcinoma into the lungs of a rabbit. The rabbit was made to inhale ICG (0.75 mg/mL) for 4 minutes by connecting a nebulizer to a ventilator. 1 hour later, the chest of the rabbit was cut open and the fluorescence images of the lung were acquired using a NIR imaging system. After conducting surgery for pulmonary nodules, the excised lung tissue was prepared into 10 μm-thick cryosections and optical images were acquired using a NIR microscope. Then, the lung tissue was stained with H&E, and the boundary of cancer tissue was observed histologically.

lung cancer cells = assay: Distribution of inhaled ICG in mouse lung cancer model with GFP-labeled lung cancer cells; details: fluorescence imaging
Text: In order to investigate the boundary of cancer cells and ICG distribution more accurately, a mouse lung cancer model was established by labeling lung cancer cells with GFP and the distribution of ICG administered through respiration was investigated by fluorescence imaging.

VX2 carcinoma [3] = assay: Cancer detection rate (TMDE) in lung tumor-induced rabbit model depending on concentration of administered ICG
Protocol: as §1
It was investigated whether the desired effect can be achieved with a less amount of ICG administered by airway administration as compared to intravenous administration of ICG. Specifically, after administering ICG at different concentrations (0.1 mg/kg, 0.25 mg/kg, 0.5 mg/kg, 1 mg/kg) in the same manner as in Example 2 to the lung tumor-induced rabbit model of Example 2, the fluorescence images of the lung were acquired and TMDE (tumor margin detection efficiency) depending on the ICG concentration was compared.

VX2 carcinoma [4] = assay: Cancer detection rate (TMDE) in lung tumor-induced rabbit model depending on administration route of ICG; details: 0.25 mg/kg ICG through respiration vs 5 mg/kg intravenous, TMDE at 1, 3, 6, 24 hours
Protocol: as §1, with “Then, the lung tissue was stained with H&E, and the boundary of cancer tissue was observed histologically.” left out
Specifically, after extracting the lungs from a lung tumor-induced rabbit model to which 0.25 mg/kg ICG was administered through respiration in the same manner as in Example 2 and a lung tumor-induced rabbit model to which 5 mg/kg ICG was administered intravenously, fluorescence images were acquired and TMDE was quantitated 1 hour later, 3 hours later, 6 hours later and 24 hours later using a NIR imaging system.

lung tumor = assay: Visualization of lesion in human lungs through administration of ICG via bronchus
Protocol: As confirmed in Examples 2-4, remarkably high cancer detection rate could be achieved through airway administration of ICG for lung tumor even with a less amount of ICG. […] Specifically, the lobar bronchi of six lung tumor patients who received surgery for pulmonary nodules in Korea University Guro Hospital were connected with tubes and 0.75 mg/mL ICG was administered for 4 minutes using a nebulizer. Then, fluorescence images were acquired using a NIR imaging system.

[5] = airway administration by nebulizer, ICG 2.5 mg/kg
[6] = airway administration, extracted organs, fluorescence imaging
[7] = six lung tumor patients, 0.75 mg/mL ICG via lobar bronchus 4 minutes

CC1(C)C(/C=C/C=C/C=C/C=C2\N(CCCCS(=O)(=O)O)c3ccc4ccccc4c3C2(C)C)=[N+](CCCCS(=O)(=O)[O-])c2ccc3ccccc3c21 [ICG, Indocyanine green]
time after administration at which fluorescence is emitted in the lungs [1, 5]: ≤ 10 min
time after administration at which fluorescence signals could still be detected [1, 5]: ≥ 24 h
time of peak fluorescence signals after administration [1, 5]: 1 h
distribution of ICG in the kidney and spleen [1, 6]: almost nonexistent
distribution of ICG in the lung [1, 6]: present at high concentrations particularly in the lung
boundary of cancer tissue identified by ICG versus H&E histology (VX2 carcinoma [2]): consistent with the histologically observed boundary of cancer
diameter of the cancer tissue negatively contrasted by ICG (VX2 carcinoma [2]; imaged 1 hour later): 2 mm
distribution of inhaled ICG in cancer tissue versus normal tissue (VX2 carcinoma [2]; imaged 1 hour later): not distributed in the cancer tissue but stains the normal tissue only
distribution of ICG administered through respiration (lung cancer cells): distributed through the lungs except for the lung cancer cells
ICG concentration needed for accurate detection of the boundary of lung tumor (VX2 carcinoma [3]; airway administration): ≥ 0.25 mg/kg
detection of boundary of cancer tissue (VX2 carcinoma [3]; airway administration of ICG at 0.1, 0.25, 0.5 and 1 mg/kg): could be detected effectively
lung tumor detection rate (TMDE) versus ICG concentration (VX2 carcinoma [3]; airway administration, 0.1-1 mg/kg): increased depending on the concentration of ICG
cancer detection rate (TMDE) of respiration administration relative to intravenous administration (VX2 carcinoma [4]): ≥ 2.5 times
TMDE (lung tumor; six lung tumor patients (Case 1-6, one value per patient), 0.75 mg/mL ICG via lobar bronchus 4 minutes by nebulizer): 2.8 (2×) and 2.7 and 3.3 and 2.6 and 3.4
boundary between cancer tissue and normal tissue versus pathology (lung tumor; [7]): consistent with the pathological outcome for each patient
distribution of inhaled ICG in human lungs (lung tumor; [7]): distributed only in the normal tissue of the lungs
